{
  "source": "ChEMBL document CHEMBL5226386",
  "about": "“Discovery and Biosynthesis of Glycosylated Cycloheximide from a Millipede-Associated Actinomycete” (J Nat Prod, 2023)",
  "key": {"A549": {"test_system": "A549", "experiment": "Cytotoxicity against human A549 cells assessed as reduction in cell viability incubated for 48 hrs by CCK-8 assay", "type": "functional, cell-based", "settings": "A549, 48 h"}, "Cryptococcus neoformans": {"test_system": "Cryptococcus neoformans", "experiment": "Antifungal activity against Cryptococcus neoformans H99 assessed as inhibition of fungal growth incubated for 24 hrs by agar diffusion method", "type": "functional"}, "HeLa": {"test_system": "HeLa", "experiment": "Cytotoxicity against human HeLa cells assessed as reduction in cell viability incubated for 48 hrs by CCK-8 assay", "type": "functional, cell-based"}, "Saccharomyces cerevisiae": {"test_system": "Saccharomyces cerevisiae", "experiment": "Antifungal activity against Saccharomyces cerevisiae BY4741 assessed as inhibition of fungal growth incubated for 24 hrs by agar diffusion method", "type": "functional"}, "MCF7": {"test_system": "MCF7", "experiment": "Cytotoxicity against human MCF7 cells assessed as reduction in cell viability incubated for 48 hrs by CCK-8 assay", "type": "functional, cell-based", "settings": "MCF7, 48 h"}},
  "data": [
    {"smiles": "C[C@@H]1C/C(=C\\CC2CC(=O)NC(=O)C2)C(=O)[C@@H](C)C1", "values": [
      {"measurement": "IC50", "setting": "A549", "result": "> 20000", "unit": "nM"},
      {"measurement": "MIC", "setting": "Cryptococcus neoformans", "result": "> 32", "unit": "µg/mL"},
      {"measurement": "IC50", "setting": "HeLa", "result": "> 20000", "unit": "nM"},
      {"measurement": "MIC", "setting": "Saccharomyces cerevisiae", "result": "> 32", "unit": "µg/mL"},
      {"measurement": "IC50", "setting": "MCF7", "result": "> 20000", "unit": "nM"}
    ]},
    {"smiles": "Cc1cc(C)c(O[C@@H]2O[C@@H](C)[C@H](O)[C@@H](O)[C@H]2O)c(C(=O)CC2CC(=O)NC(=O)C2)c1", "values": [
      {"measurement": "IC50", "setting": "A549", "result": "> 20000", "unit": "nM"},
      {"measurement": "MIC", "setting": "Cryptococcus neoformans", "result": "> 32", "unit": "µg/mL"},
      {"measurement": "IC50", "setting": "HeLa", "result": "> 20000", "unit": "nM"},
      {"measurement": "MIC", "setting": "Saccharomyces cerevisiae", "result": "> 32", "unit": "µg/mL"},
      {"measurement": "IC50", "setting": "MCF7", "result": "> 20000", "unit": "nM"}
    ]},
    {"smiles": "C[C@@H]1C[C@@H]([C@@H](CC2CC(=O)NC(=O)C2)O[C@H]2O[C@H](CO)[C@@H](O)[C@H](O)[C@H]2O)C(=O)[C@@H](C)C1", "values": [
      {"measurement": "IC50", "setting": "A549", "result": "> 20000", "unit": "nM"},
      {"measurement": "MIC", "setting": "Cryptococcus neoformans", "result": "> 32", "unit": "µg/mL"},
      {"measurement": "IC50", "setting": "HeLa", "result": "> 20000", "unit": "nM"},
      {"measurement": "MIC", "setting": "Saccharomyces cerevisiae", "result": "> 32", "unit": "µg/mL"},
      {"measurement": "IC50", "setting": "MCF7", "result": "> 20000", "unit": "nM"}
    ]},
    {"smiles": "C[C@@H]1C[C@@H]([C@H](O)CC2CC(=O)NC(=O)C2)C(=O)[C@@H](C)C1", "note": "[CYCLOHEXIMIDE]", "values": [
      {"measurement": "IC50", "setting": "A549", "result": 670, "unit": "nM"},
      {"measurement": "MIC", "setting": "Cryptococcus neoformans", "result": 2, "unit": "µg/mL"},
      {"measurement": "IC50", "setting": "HeLa", "result": 1000, "unit": "nM"},
      {"measurement": "MIC", "setting": "Saccharomyces cerevisiae", "result": 2, "unit": "µg/mL"},
      {"measurement": "IC50", "setting": "MCF7", "result": 530, "unit": "nM"}
    ]},
    {"smiles": "COc1cccc2c1C(=O)c1c(O)c3c(c(O)c1C2=O)C[C@@](O)(C(=O)CO)C[C@@H]3O[C@H]1C[C@H](N)[C@H](O)[C@H](C)O1", "note": "[DOXORUBICIN]", "values": [
      {"measurement": "IC50", "setting": "A549", "result": 600, "unit": "nM"},
      {"measurement": "IC50", "setting": "HeLa", "result": 90, "unit": "nM"},
      {"measurement": "IC50", "setting": "MCF7", "result": 970, "unit": "nM"}
    ]}
  ]
}
